Laboratory results from patent publication US11945783B1, “4-(4,5-bis(4-bromophenyl)-2-(4-methoxyphenyl)-1H-imidazol-1-yl)butanoic acid as an antimicrobial compound” (KING FAISAL UNIVERSITY, priority 2023, dated 2024).

Assays:
Format in all cases: cell-based
Bacillus cereus = assay: Agar plate disc-diffusion, antibacterial; conditions: nutrient agar, 37° C., 48 hours
Experimental: (§1) The agar plate disc-diffusion method was applied. […] The discs were then placed onto the surface of agar plates (nutrient agar for bacteria and Sabouraud's dextrose agar for fungi) seeded with the test organism. Each plate contained 15 mL of the agar medium, previously seeded with 0.2 mL of the broth culture of each organism pregrown for 18 hours. The plates were incubated at 37° C. for 48 hours, and 72 hours for fungi. The inhibition zones was measured in mm. Discs impregnated with DMSO were used as a control, and its inhibition zone was subtracted from the tested compound actual inhibition zone.

Escherichia coli = assay: Agar plate disc-diffusion, antibacterial; conditions: nutrient agar, 37° C., 48 hours
Experimental: as §1

Staphylococcus aureus = assay: Agar plate disc-diffusion, antibacterial; conditions: nutrient agar, 37° C., 48 hours
Experimental: as §1

Pseudomonas aeruginosa = assay: Agar plate disc-diffusion, antibacterial; conditions: nutrient agar, 37° C., 48 hours
Experimental: as §1

Aspergillus flavus = assay: Agar plate disc-diffusion, antifungal; conditions: Sabouraud's dextrose agar, 72 hours
Experimental: as §1

[1] = system: Chrysosporium keratinophilum; assay: Agar plate disc-diffusion, antifungal; conditions: Sabouraud's dextrose agar, 72 hours
Experimental: as §1

[2] = A = concentration of comp. = 10,000 μL
[3] = B = concentration of comp. = 30,000 μL
[4] = C = concentration of comp. = 50,000 μL
[5] = A = concentration of comp. = 10,000 μg/mL

O=C(O)c1cn(C2CC2)c2cc(N3CCNCC3)c(F)cc2c1=O [Cip., ciprofloxacin]
inhibition zone (Bacillus cereus; [2]): 29 mm | inhibition zone (Bacillus cereus; [3]): 31 mm | inhibition zone (Bacillus cereus; [4]): 42 mm | inhibition zone (Escherichia coli; [2]): 30 mm | inhibition zone (Escherichia coli; [3]): 39 mm | inhibition zone (Escherichia coli; [4]): 60 mm | inhibition zone (Staphylococcus aureus; [2]): 43 mm | inhibition zone (Staphylococcus aureus; [3]): 44 mm | inhibition zone (Staphylococcus aureus; [4]): 53 mm | inhibition zone (Pseudomonas aeruginosa; [5]): 29 mm | inhibition zone (Pseudomonas aeruginosa; [3]): 30 mm | inhibition zone (Pseudomonas aeruginosa; [4]): 53 mm | inhibition zone (Aspergillus flavus; [2]): 29 mm | inhibition zone (Aspergillus flavus; [3]): 32 mm | inhibition zone (Aspergillus flavus; [4]): 42 mm | inhibition zone [1, 2]: 29 mm | inhibition zone [1, 3]: 30 mm | inhibition zone [1, 4]: 53 mm

COc1ccc(-c2nc(-c3ccc(Br)cc3)c(-c3ccc(Br)cc3)n2CCCC(=O)O)cc1 [V, 4-(4,5-bis(4-bromophenyl)-2-(4-methoxyphenyl)-1H-imidazol-1-yl)butanoic acid]
inhibition zone (Bacillus cereus; [2]): 28 mm | inhibition zone (Bacillus cereus; [3]): 30 mm | inhibition zone (Bacillus cereus; [4]): 41 mm | inhibition zone (Escherichia coli; [2]): 26 mm | inhibition zone (Escherichia coli; [3]): 35 mm | inhibition zone (Escherichia coli; [4]): 47 mm | inhibition zone (Staphylococcus aureus; [2]): 18 mm | inhibition zone (Staphylococcus aureus; [3]): 20 mm | inhibition zone (Staphylococcus aureus; [4]): 30 mm | inhibition zone (Pseudomonas aeruginosa; [5]): 21 mm | inhibition zone (Pseudomonas aeruginosa; [3]): 24 mm | inhibition zone (Pseudomonas aeruginosa; [4]): 35 mm | inhibition zone (Aspergillus flavus; [2]): 19 mm | inhibition zone (Aspergillus flavus; [3]): 21 mm | inhibition zone (Aspergillus flavus; [4]): 32 mm | inhibition zone [1, 2]: 26 mm | inhibition zone [1, 3]: 28 mm | inhibition zone [1, 4]: 50 mm
